Among the data in patent US20200392108A1, “ANTIBODY-DRUG CONJUGATES AND RELATED COMPOUNDS, COMPOSITIONS AND METHODS” (Magenta Therapeutics, Inc., priority 2011, published 2020) are IC50 values, retold here.

Where two headings read alike, the source gives them in different places. Square brackets hold non-standard residues; d marks the D form. Peptide text beside a SMILES is read from it. Dolaproine = CO[C@@H]([C@@H]1CCCN1)[C@@H](C)C(=O)O; Dil = CC[C@H](C)[C@H](NC)[C@@H](CC(=O)O)OC; NMeV = CN[C@H](C(=O)O)C(C)C

In the assay the test system is BT474 (HER2+) cell line. The assay is described as follows: Standard cellular cytotoxicity assay, BT474. It is filed as cell-based, human. The text has this: The cytotoxicity of tubulysins T1 and T2 was compared to the cytotoxicity of MMAF using the BT474 (HER2+) cell line in a standard cellular cytotoxicity assay.

As usually defined, the IC50 is the concentration needed to halve the response being measured. Lower therefore signals greater potency. In the case of `CC[C@H](C)[C@@H]([C@@H](CC(=O)N1CCC[C@H]1[C@H](OC)[C@@H](C)C(=O)N[C@@H](Cc1ccccc1)C(=O)O)OC)N(C)C(=O)[C@@H](NC(=O)[C@@H](NC)C(C)C)C(C)C` [MMAF, monomethylauristatin F] (H-[NMeV]V[Dil][Dolaproine]F-OH), the IC50 is 93 nM.

Turning to `CC[C@H](C)[C@H](NC(=O)[C@H]1CCCCN1C)C(=O)N(C)[C@H](C[C@@H](OC(C)=O)c1nc(C(=O)O)cs1)C(C)C` [T1], the IC50 (Homo sapiens, BT-474) amounted to 11 nM.

`CC[C@H](C)[C@H](NC(=O)[C@H]1CCCCN1C)C(=O)N(C)[C@H](C[C@@H](OC(C)=O)c1nc(C(=O)N[C@@H](Cc2ccccc2)C[C@H](C)C(=O)O)cs1)C(C)C` [T2]: the IC50 (Homo sapiens, BT-474) was under 0.1 nM.
